According to patent publication US8084196B2, “Method for the in vitro screening of anti-cancer compounds that inhibits SK3 activity, and said anti-cancer compounds” (priority 2006, dated 2011):

Experiments:
MDA-MB-435s cells [1] = assay type: cell-based, human; details: current-clamp, FIG. 2D
Protocol: D—Variations of membrane potential recorded in control conditions (PSS without drugs, n=11) and in presence of TEA (n=7), 4-AP (n=8) and TEA plus 4-AP (n=3). Membrane potential was measured in current-clamp mode (I=0) just after the disruption of the patch membrane.
(§2) Whole-cell potassium currents and intracellular Ca^2+ ([Ca^2+]i) measurements were recorded as described (Roger S, Potier M, Vandier C, Le Guennec J Y, Besson P. Description and role in proliferation of iberiotoxin-sensitive currents in different human mammary epithelial normal and cancerous cells. (Biochim Biophys Acta 2004; 1667:190-9.). Signals were captured using 1322-A Digidata converter (Axon Instruments, USA) and pClamp 8.1 software (Axon Instruments, USA). The analysis were performed using Clampfit 8.1 and Origin 7.0 softwares (Microcal Software, Northampton, Mass., USA).
(§3) The physiological saline solution (PSS) in mM: NaCl 140, MgCl2 1, KCl 4, CaCl2 2, D-glucose 11.1, and HEPES 10, adjusted to pH 7.4 with NaOH. The pipette solution for the whole-cell recording, pCa=7 was (in mM): K-glutamate 125, KCl 20, CaCl2 0.37, MgCl2 1, Mg-ATP 1, EGTA 1, HEPES 10, adjusted to pH 7.2 with KOH. […] All drugs and chemicals were purchased from Sigma-Aldrich (St Quentin, France), except Lei-Dab7 which was a generous gift from Dr. J. M. Sabatier, UMR CNRS 6560, Marseille, France.

MDA-MB-435s cells [2] = details: for decrease of outward currents: FIG. 2C
Protocol: Currents were generated by stepwise 8 mV depolarizing pulses (400 ms duration; 5 sec intervals) from a constant holding potential of −70 mV up to +58 mV. Signals were filtered at 1 kHz and digitized at 10 kHz.
B, C—Current-density was obtained by dividing the averaged steady-state current elicited at +26 mV (recorded during the latest 50 ms of the pulse) by the respective cell capacitance. Membrane capacitance was calculated by integrating the capacitive current measured during a 10 mV voltage step.
as §2, §3

SK3 = SK3 (Homo sapiens, UniProt Q9UGI6); details: apamin: low concentration (1 nM); cited from earlier work
SK2 = SK2 (Homo sapiens, UniProt Q9H2S1); details: apamin: low concentration (1 nM); cited from earlier work
MDA-MB-435s cells [3] = assay type: cell-based, human; details: FIG. 4A; for number of migrating cells after siRNA transfection: MDA-MB-435s, 24, 48, 72 h after transfection
Protocol: Cells were seeded at 40000 in a cell culture insert in DMEM with 5% FBS±drugs or [K^+] 60 mM. […] 60 mM. After 24 h, cells of the lower compartment were stained with hematoxylin (A, bottom) and counted. The normalized cell number corresponded to the ratio of total number of migrating cells in presence of drug or [K^+] 60 mM/total number of migrating cells in control experiments. […] Scale bar=10 μm for the two panels.
(§1) Cell proliferation was determined using the tetrazolium salt reduction method, as described (Roger S, Potier M, Vandier C, Le Guennec J Y, Besson P. Description and role in proliferation of iberiotoxin-sensitive currents in different human mammary epithelial normal and cancerous cells. Biochim Biophys Acta 2004; 1667:190-9.). Cells were seeded on 24-well plates and grown for 48 h. […] Cell migration was analyzed in 24-well plates receiving 8-μm pore size polyethylene terephtalate membrane cell culture inserts (Becton Dickinson, France), as described (Roger S, Potier M, Vandier C, Le Guennec J Y, Besson P. Description and role in proliferation of iberiotoxin-sensitive currents in different human mammary epithelial normal and cancerous cells. Biochim Biophys Acta 2004; 1667:190-9.).

SK3 protein [4] = test: Western blot of SK3 protein after siRNA transfection, MDA-MB-435s; assay type: cell-based, human; details: 24, 48, 72 h after transfection vs scrambled-siRNA, greatest effect at 72 hours
Protocol: A—Top, Western blot patterns showing the silencing effect on the expression of SK3 protein—of two siRNAs designed against SK3 mRNA. Cells were transfected with siRNA-lipofectamine complexes for 24 h, 48 h and 72 h. A scrambled-siRNA was used as negative control. SiRNA oligonucleotide sequences are listed in the Materials and Methods section. Bottom, Histograms showing the inhibitory effect on […] cell migration after 24 h, 48 h and 72 h siRNA transfection with or without 10 nM apamin. Results from two separate experiments performed in triplicate are expressed as mean±S.E.M. Normalization of cell number performed as described in the legend of FIG. 1. Note that the cells have lost their sensitivity for apamin after siRNA transfection, indicating a specific effect on SK3 protein.
For Western blot experiments, proteins were electrotransferred onto polyvinylidene fluoride membranes which were incubated with antibodies directed against SK2 and SK3 proteins (1:1000) followed by incubation with a horseradish peroxidase-conjugated anti-rabbit IgG (1:5000; Tebu-Bio, France). Anti-SK2 directed against amino acids 542-559 and anti-SK3 directed against amino acids 2-21 (Sigma-Aldrich, France) were used for Western blot and immunocytochemical experiments. Anti-Actin directed against amino acids 20-33 (Sigma-Aldrich, France) was used for western blot loading control experiments. […]

518A2 cells = test: Cell migration, 518A2 melanoma cells; assay type: cell-based; details: 518A2, 48 hours after transfection, FIG. 8B
Protocol: Histograms showing the effect of 10 nM apamin on cell migration (FIG. 5A). Cells were seeded at 40000 in a cell culture insert in DMEM with 5% FBS±apamin. The lower compartment of the insert contained DMEM with 10% FBS as a chemoattractant±apamin. After 24 h, cells of the lower side were stained with hematoxylin (FIG. 5B, right) and counted. The normalized cell number corresponded to the ratio of total number of migrating cells in presence of apamin/total number of migrating cells in control experiments. The apamin concentration selected has no effect on cell proliferation and viability. […] Mammary cancer MDA-MB-435s cells were used as control cell. […]
as §1, with “1667:190-9.).” for “1667:190-9.). Cells were seeded on 24-well plates and grown for 48 h.”

SK3 protein [5] = test: Western blot of SK3 protein after siRNA transfection, 518A2; assay type: cell-based, human; details: 518A2, 48 hours after transfection vs scrambled-siRNA, FIG. 8A
Protocol: FIG. 8A—Western blot patterns showing the silencing effect on the expression of SK3 protein of two siRNAs designed against SK3 mRNA. Cells were transfected with siRNA-lipofectamine complexes for 48 h. A scrambled-siRNA was used as negative control. siRNA oligonucleotide sequences are listed in the Materials and Methods section.
For Western blot experiments, proteins were electrotransferred onto polyvinylidene fluoride membranes which were incubated with antibodies directed against SK2 and SK3 proteins (1:1000) followed by incubation with a horseradish peroxidase-conjugated anti-rabbit IgG (1:5000; Tebu-Bio, France). Anti-SK2 directed against amino acids 542-559 and anti-SK3 directed against amino acids 2-21 (Sigma-Aldrich, France) were used for Western blot and immunocytochemical experiments. Anti-Actin directed against amino acids 20-33 (Sigma-Aldrich, France) was used for western blot loading control experiments.
Two SK3 specific siRNA were designed: first set, hSK3-ex1-Sense 5′-GAAAGCGACUGAGUGACUAdTdT-3′ (sequence SEQ ID No. 5) and hSK3-ex1-Antisense 5′-UAGUCACUCAGUCGCUUCdTdT-3′, (sequence SEQ ID N 06) located in exon 1; second set, hSK3-ex3-Sense 5′-CCAUUCCUGGCGAGUACAAdTdT-3′ (sequence SEQ ID No. 7) and hSK3-ex3-Antisense 5′-UUGUACUCGCCAGGAAUGGdTdT-3′, (sequence SEQ ID No. 8) located in exon 3. […]

SK3 protein, sequence (Q9UGI6 other isoform, or with tags, fused parts or gaps DUP76-80): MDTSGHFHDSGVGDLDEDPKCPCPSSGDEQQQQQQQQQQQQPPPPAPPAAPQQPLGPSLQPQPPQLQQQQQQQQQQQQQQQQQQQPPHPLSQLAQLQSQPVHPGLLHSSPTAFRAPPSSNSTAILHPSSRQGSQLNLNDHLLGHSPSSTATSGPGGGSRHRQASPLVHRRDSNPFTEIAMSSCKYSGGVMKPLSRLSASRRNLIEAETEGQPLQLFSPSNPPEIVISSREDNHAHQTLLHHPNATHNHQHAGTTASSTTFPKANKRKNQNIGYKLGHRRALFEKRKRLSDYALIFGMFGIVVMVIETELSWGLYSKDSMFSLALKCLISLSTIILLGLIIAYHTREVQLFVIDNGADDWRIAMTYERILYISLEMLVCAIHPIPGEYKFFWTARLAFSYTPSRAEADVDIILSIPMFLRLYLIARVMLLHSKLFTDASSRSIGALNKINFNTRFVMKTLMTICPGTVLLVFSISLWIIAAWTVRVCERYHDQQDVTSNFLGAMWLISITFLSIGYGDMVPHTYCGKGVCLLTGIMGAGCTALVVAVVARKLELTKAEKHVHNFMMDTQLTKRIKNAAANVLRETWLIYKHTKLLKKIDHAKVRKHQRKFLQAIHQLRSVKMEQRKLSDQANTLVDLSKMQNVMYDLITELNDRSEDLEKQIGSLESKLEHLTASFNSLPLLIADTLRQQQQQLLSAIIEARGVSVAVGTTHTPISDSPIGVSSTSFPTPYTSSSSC
SK3, sequence (Q9UGI6 whole entry): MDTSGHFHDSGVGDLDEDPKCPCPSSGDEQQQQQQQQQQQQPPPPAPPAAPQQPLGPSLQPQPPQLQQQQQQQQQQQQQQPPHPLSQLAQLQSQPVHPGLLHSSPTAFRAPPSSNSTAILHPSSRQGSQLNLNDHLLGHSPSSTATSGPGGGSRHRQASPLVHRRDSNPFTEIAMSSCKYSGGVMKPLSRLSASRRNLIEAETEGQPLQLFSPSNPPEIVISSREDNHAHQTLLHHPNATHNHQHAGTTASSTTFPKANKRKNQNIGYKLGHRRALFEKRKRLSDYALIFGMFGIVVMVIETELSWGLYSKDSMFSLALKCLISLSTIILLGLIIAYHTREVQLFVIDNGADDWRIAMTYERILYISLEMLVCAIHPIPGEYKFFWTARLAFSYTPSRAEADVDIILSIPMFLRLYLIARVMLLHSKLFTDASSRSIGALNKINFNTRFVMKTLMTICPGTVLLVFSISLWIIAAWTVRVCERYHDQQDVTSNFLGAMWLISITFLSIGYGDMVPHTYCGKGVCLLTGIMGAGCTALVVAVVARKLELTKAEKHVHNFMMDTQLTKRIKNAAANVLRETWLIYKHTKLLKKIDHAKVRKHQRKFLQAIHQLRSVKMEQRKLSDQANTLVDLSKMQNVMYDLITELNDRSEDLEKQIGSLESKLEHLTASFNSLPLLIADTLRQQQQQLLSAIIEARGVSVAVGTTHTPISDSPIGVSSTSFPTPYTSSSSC
SK2, sequence (Q9H2S1 whole entry): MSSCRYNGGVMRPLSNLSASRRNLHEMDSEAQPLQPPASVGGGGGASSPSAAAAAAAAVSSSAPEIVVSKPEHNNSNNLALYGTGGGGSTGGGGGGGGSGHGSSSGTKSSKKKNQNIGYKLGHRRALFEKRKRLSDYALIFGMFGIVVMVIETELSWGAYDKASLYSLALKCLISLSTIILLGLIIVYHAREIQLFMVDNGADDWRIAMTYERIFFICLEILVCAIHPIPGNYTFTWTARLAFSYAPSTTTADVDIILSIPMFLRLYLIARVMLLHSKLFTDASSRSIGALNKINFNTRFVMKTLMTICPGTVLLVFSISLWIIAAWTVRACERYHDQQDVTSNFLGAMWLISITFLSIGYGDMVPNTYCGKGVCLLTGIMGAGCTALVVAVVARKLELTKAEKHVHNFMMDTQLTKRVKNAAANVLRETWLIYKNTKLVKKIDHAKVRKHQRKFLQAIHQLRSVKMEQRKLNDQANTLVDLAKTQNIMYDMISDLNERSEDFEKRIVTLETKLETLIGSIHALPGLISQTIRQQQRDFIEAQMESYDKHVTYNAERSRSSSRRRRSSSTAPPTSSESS

Row | Compound | effect on membrane potential (MDA-MB-435s cells [1]) | decrease of outward currents (MDA-MB-435s cells [2]) [%] | block of SK3 channel (SK3) | number of migrating cells after siRNA transfection (MDA-MB-435s cells [3]) | SK3 expression (Western blot) (SK3 protein [4]) | other results
1 | Nc1ccncc1 [4-AP, 4-aminopyridine] | depolarized | 50 | blocks | – | – | –
2 | CC[N+](CC)(CC)CC [TEA, tetraethylammonium] | depolarized | 50 | blocks | – | – | block of SK2 channel (SK2): blocks
3 | CC(C)C[C@@H]1NC(=O)[C@H](C)NC(=O)[C@H]([C@@H](C)O)NC(=O)[C@H](CCC(=O)O)NC(=O)[C@@H]2CCCN2C(=O)[C@H](C)NC(=O)[C@H](CCCCN)NC(=O)[C@@H]2CSSC[C@@H](C(=O)N[C@@H](CCC(N)=O)C(=O)N[C@@H](CCC(N)=O)C(=O)N[C@@H](Cc3cnc[nH]3)C(N)=O)NC(=O)[C@H](CCCNC(=N)N)NC(=O)[C@H](CCCNC(=N)N)NC(=O)[C@H](C)NC(=O)[C@H](CSSC[C@H](N)C(=O)N[C@@H](CC(N)=O)C(=O)N2)NC1=O [apamin] | – | – | – | – | – | IC50 (MDA-MB-435s cells [2]; read-out: estimated IC50 of block of outward currents, whole-cell, dose-dependent, FIG. 2B): < 0.1 nM
4 | ΔExon1-siRNA: siRNA against SK3 exon 1, sense 5′-GAAAGCGACUGAGUGACUAdTdT-3′ (SEQ ID No. 5), antisense SEQ ID No. 6 (sense GAAAGCGACUGAGUGACUADTDT; antisense UAGUCACUCAGUCGCUUCDTDT; chemistry not fully specified) | – | – | – | markedly reduced | marked suppression | number of migrating cells after siRNA transfection (518A2 cells): markedly reduced; SK3 expression (Western blot) (SK3 protein [5]): decrease
5 | ΔExon3-siRNA: siRNA against SK3 exon 3, sense 5′-CCAUUCCUGGCGAGUACAAdTdT-3′ (SEQ ID No. 7), antisense SEQ ID No. 8 (sense CCAUUCCUGGCGAGUACAADTDT; antisense UUGUACUCGCCAGGAAUGGDTDT; chemistry not fully specified) | – | – | – | markedly reduced | marked suppression | relative efficiency of the siRNAs (Western blot and migration) (MDA-MB-435s cells [3]; MDA-MB-435s): more efficient than ΔExon1-siRNA
